Experimental data: patent US20040171566A1, “Antisense modulation of p38 mitogen activated protein kinase expression” (priority 1999, published 2004)
In the oligonucleotide strings, read from the 5' end, every base follows the letter of its sugar. An asterisk marks phosphorothioate; unmarked linkages are phosphodiester. Other units and linkages are bracketed, terminal groups are in braces. A string of capitals states the bases alone. e = 2'-O-(2-methoxyethyl) (MOE); [5mC] = 5-methylcytosine; d = 2'-deoxy (DNA)

Columns and labels:
[1] = tested on: human p38α mRNA; test: Inhibition of human p38α mRNA expression in Jurkat cells, Northern blot; type: cell-based
Method: (§1) The human Jurkat T-cell line (American Type Culture Collection, Manassas, Va.) was maintained in RPMI 1640 growth media supplemented with 10% fetal bovine serum (FBS; Hyclone, Logan, Utah). HUVEC cells (Clonetics, San Diego, Calif.) were cultivated in endothelial basal media supplemented with 10% FBS (Hyclone, Logan, Utah).
Jurkat cells were grown to approximately 75% confluency and resuspended in culture media at a density of 1×10^7 cells/ml. A total of 3.6×10^6 cells were employed for each treatment by combining 360 μl of cell suspension with oligonucleotide at the indicated concentrations to reach a final volume of 400 μl. Cells were then transferred to an electroporation cuvette and electroporated using an Electrocell Manipulator 600 instrument (Biotechnologies and Experimental Research, Inc.) employing 150 V, 1000 μF, at 13 Ω. Electroporated cells were then transferred to conical tubes containing 5 ml of culture media, mixed by inversion, and plated onto 10 cm culture dishes.
(§2) Total mRNA was isolated using the RNEASY7 Mini Kit (Qiagen, Valencia, Calif.; similar kits from other manufacturers may also be used), separated on a 1% agarose gel, transferred to HYBOND™-N+ membrane (Amersham Pharmacia Biotech, Piscataway, N.J.), a positively charged nylon membrane, and probed. p38 MAPK probes were made using the Prime-A-Gene7 kit (Promega Corporation, Madison, Wis.), a random primer labeling kit, using mouse p38α or p38β cDNA as a template. A glyceraldehyde 3-phosphate dehydrogenase (G3PDH) probe was purchased from Clontech (Palo Alto, Calif.), Catalog Number 9805-1. The fragments were purified from low-melting temperature agarose, as described in Maniatis, T., et al., Molecular Cloning: A Laboratory Manual, 1989. The G3PDH probe was labeled with REDIVUE™ ^32P-dCTP (Amersham Pharmacia Biotech, Piscataway, N.J.) and Strip-EZ labelling kit (Ambion, Austin, Tex.). mRNA was quantitated by a PhosphoImager (Molecular Dynamics, Sunnyvale, Calif.).
Jurkat cells were grown and treated as described above except the concentration of oligonucleotide was varied as indicated in Table 3. […] Maximum inhibition was approximately 70% with 16500 (SEQ ID NO 17).

[2] = tested on: human p38β mRNA; test: Inhibition of human p38β mRNA expression in HUVEC cells, Northern blot; type: cell-based
Method: as §1
HUVEC cells were allowed to reach 75% confluency prior to use. The cells were washed twice with warm (37° C.) OPTI-MEM™ (Life Technologies). The cells were incubated in the presence of the appropriate culture medium, without the growth factors added, and the oligonucleotide formulated in LIPOFECTIN7 (Life Technologies), a 1:1 (w/w) liposome formulation of the cationic lipid N-[1-(2,3-dioleyloxy)propyl]-n,n,n-trimethylammonium chloride (DOTMA), and dioleoyl phosphotidylethanolamine (DOPE) in membrane filtered water. HUVEC cells were treated with 100 nM oligonucleotide in 10 μg/ml LIPOFECTIN7. Treatment was for four hours.
as §2
Every oligonucleotide tested gave at least 50% inhibition.
Oligonucleotides 17893 (SEQ ID NO. 27), 17899 (SEQ ID NO:33), 17904 (SEQ ID NO. 38), and 17907 (SEQ ID NO. 41) were chosen for dose response studies. HUVEC cells were cultured and treated as described in Example 2 except that the oligonucleotide concentration was varied as shown in Table 6. The Lipofectin7/Oligo ratio was maintained at 3 μg Lipofectin7/100 nM oligo, per ml. mRNA was measured by Northern blot as described in Example 2.

[3] = Jurkat cells electroporated with 10 μM oligonucleotide, Northern blot
[4] = 100 nM oligonucleotide in 10 μg/ml LIPOFECTIN, four hours, Northern blot

| Sequence | % mRNA EXPRESSION [1, 3] [%] | % mRNA EXPRESSION [2, 4] [%] | % mRNA Inhibition [2, 4] [%] | also measured |
| --- | --- | --- | --- | --- |
| TTTAGGTCCCTGTGAATTAT (eT*eT*eT*eA*eG*eG*dT*dC*dC*dC*dT*dG*dT*dG*eA*eA*eT*eT*eA*eT; antisense) [ISIS 16497] | 104 | – | – | – |
| AGGCACTTGAATAATATTTG (eA*eG*eG*e[5mC]*eA*e[5mC]*dT*dT*dG*dA*dA*dT*dA*dA*eT*eA*eT*eT*eT*eG; antisense) [ISIS 16503] | 65 | – | – | % mRNA EXPRESSION ([1]; Jurkat cells, dose 2.5 nM): 74%; % mRNA Inhibition ([1]; Jurkat cells, dose 2.5 nM): 26%; % mRNA EXPRESSION ([1]; Jurkat cells, dose 5 nM): 61%; % mRNA Inhibition ([1]; Jurkat cells, dose 5 nM): 39%; % mRNA EXPRESSION ([1]; Jurkat cells, dose 10 nM): 53%; % mRNA Inhibition ([1]; Jurkat cells, dose 10 nM): 47%; % mRNA EXPRESSION ([1]; Jurkat cells, dose 20 nM): 41%; % mRNA Inhibition ([1]; Jurkat cells, dose 20 nM): 59% |
| AACCAGGTGCTCAGGACTCC (antisense eA*eA*e[5mC]*e[5mC]*eA*eG*dG*dT*dG*dC*dT*dC*dA*dG*eG*eA*e[5mC]*eT*e[5mC]*e[5mC]) [ISIS 16500] | 63 | – | – | % mRNA EXPRESSION ([1]; Jurkat cells, dose 2.5 nM): 82%; % mRNA Inhibition ([1]; Jurkat cells, dose 2.5 nM): 18%; % mRNA EXPRESSION ([1]; Jurkat cells, dose 5 nM): 71%; % mRNA Inhibition ([1]; Jurkat cells, dose 5 nM): 29%; % mRNA EXPRESSION ([1]; Jurkat cells, dose 10 nM): 49%; % mRNA Inhibition ([1]; Jurkat cells, dose 10 nM): 51%; % mRNA EXPRESSION ([1]; Jurkat cells, dose 20 nM): 31%; % mRNA Inhibition ([1]; Jurkat cells, dose 20 nM): 69%; Maximum inhibition of p38α mRNA ([1]; Jurkat cells, dose response): approximately 70% |
| TCTGTGACCATAGGAGTGTG (antisense; chemistry not fully specified) [ISIS 17905] | – | 14 | 86 | – |
| TTCAGCTCCTGCCGGTAGAA (chemistry not fully specified) [ISIS 17892] | – | 10 | 90 | – |
| GGTCTCGGGCGACCTCTCCT (antisense eG*eG*eT*e[5mC]*eT*e[5mC]*dG*dG*dG*dC*dG*dA*dC*dC*eT*e[5mC]*eT*e[5mC]*e[5mC]*eT) [ISIS 16491] | 148 | – | – | – |
| ACACATGCACACACACTAAC (antisense eA*e[5mC]*eA*e[5mC]*eA*eT*dG*dC*dA*dC*dA*dC*dA*dC*eA*e[5mC]*eT*eA*eA*e[5mC]) [ISIS 16505] | 93 | – | – | % mRNA Inhibition [1, 3]: 7% |
| CCGAACAGACGGAGCCGTAT (chemistry not fully specified) [ISIS 17894] | – | 13 | 87 | – |
| CAGAGAGCCTCCTGGGAGGG (antisense e[5mC]*eA*eG*eA*eG*eA*dG*dC*dC*dT*dC*dC*dT*dG*eG*eG*eA*eG*eG*eG) [ISIS 16489] | 149 | – | – | – |
| ACACATGTTTGTGCATGCAT (antisense; chemistry not fully specified) [ISIS 17906] | – | 22 | 78 | – |
| TAAGGAGGTCCCTGCTTTCA (antisense eT*eA*eA*eG*eG*eA*dG*dG*dT*dC*dC*dC*dT*dG*e[5mC]*eT*eT*eT*e[5mC]*eA) [ISIS 16499] | 74 | – | – | % mRNA Inhibition [1, 3]: 26% |
| CATTTTCCAGCGGCAGCCGC (antisense e[5mC]*eA*eT*eT*eT*eT*dC*dC*dA*dG*dC*dG*dG*dC*eA*eG*e[5mC]*e[5mC]*eG*e[5mC]) [ISIS 16493] | 101 | – | – | – |
| ATGATGCGCTTCAGCTGGTC (chemistry not fully specified) [ISIS 17901] | – | 15 | 85 | – |
| CAGCCGCGGGACCAGCGGCG (antisense e[5mC]*eA*eG*e[5mC]*e[5mC]*eG*dC*dG*dG*dG*dA*dC*dC*dA*eG*e[5mC]*eG*eG*e[5mC]*eG) [ISIS 16492] | 125 | – | – | – |
| ACTGTTTGGTTGTAATGCAT (antisense; chemistry not fully specified) [ISIS 17900] | – | 40 | 60 | – |
| CTTGCCAGATATGGCTGCTG (chemistry not fully specified) [ISIS 17910] | – | 26 | 74 | – |
| GTGGAGGCCAGTCCCCGGGA [ISIS 16487] | 171 | – | – | – |

| Sequence | % mRNA EXPRESSION [1, 3] [%] | % mRNA EXPRESSION [2, 4] [%] | % mRNA Inhibition [2, 4] [%] | also measured |
| --- | --- | --- | --- | --- |
| AACGCTCTCATCATATGGCT (chemistry not fully specified) [ISIS 17903] | – | 11 | 89 | – |
| TGAAAAGGCCTTCCCCTCAC (antisense eT*eG*eA*eA*eA*eA*dG*dG*dC*dC*dT*dT*dC*dC*e[5mC]*e[5mC]*eT*e[5mC]*eA*e[5mC]) [ISIS 16502] | 79 | – | – | % mRNA Inhibition [1, 3]: 21% |
| TGGCAGCAAAGTGCTGCTGG (eT*eG*eG*e[5mC]*eA*eG*dC*dA*dA*dA*dG*dT*dG*dC*eT*eG*e[5mC]*eT*eG*eG; antisense) [ISIS 16488] | 157 | – | – | – |
| GTAAGCTTCTGACATTTCAC (antisense eG*eT*eA*eA*eG*e[5mC]*dT*dT*dC*dT*dG*dA*dC*dA*eT*eT*eT*e[5mC]*eA*e[5mC]) [ISIS 16496] | 61 | – | – | % mRNA EXPRESSION ([1]; Jurkat cells, dose 2.5 nM): 94%; % mRNA Inhibition ([1]; Jurkat cells, dose 2.5 nM): 6%; % mRNA EXPRESSION ([1]; Jurkat cells, dose 5 nM): 74%; % mRNA Inhibition ([1]; Jurkat cells, dose 5 nM): 26%; % mRNA EXPRESSION ([1]; Jurkat cells, dose 10 nM): 47%; % mRNA Inhibition ([1]; Jurkat cells, dose 10 nM): 53%; % mRNA EXPRESSION ([1]; Jurkat cells, dose 20 nM): 41%; % mRNA Inhibition ([1]; Jurkat cells, dose 20 nM): 59% |
| AACGTGCTCGTCAAGTGCCA (chemistry not fully specified) [ISIS 17898] | – | 49 | 51 | – |
| AGTGCACGCTCATCCACACG (chemistry not fully specified) [ISIS 17909] | – | 13 | 87 | – |
| CTGCCGGTAGAACGTGGGCC (antisense e[5mC]*eT*eG*e[5mC]*e[5mC]*eG*dG*dT*dA*dG*dA*dA*dC*dG*eT*eG*eG*eG*e[5mC]*e[5mC]) [ISIS 16495] | 72 | – | – | % mRNA Inhibition [1, 3]: 28% |
| CAGCACCTCACTGCTCAATC (chemistry not fully specified) [ISIS 17904] | – | 9 | 91 | % mRNA EXPRESSION ([2]; dose 10 nM): 31%; % mRNA Inhibition ([2]; dose 10 nM): 69%; % mRNA EXPRESSION ([2]; dose 25 nM): 21%; % mRNA Inhibition ([2]; dose 25 nM): 79%; % mRNA EXPRESSION ([2]; dose 50 nM): 17%; % mRNA Inhibition ([2]; dose 50 nM): 83%; % mRNA EXPRESSION ([2]; dose 100 nM): 19%; % mRNA Inhibition ([2]; dose 100 nM): 81% |
| CTTCCACCATGGAGGAAATC (antisense e[5mC]*eT*eT*e[5mC]*e[5mC]*eA*dC*dC*dA*dT*dG*dG*dA*dG*eG*eA*eA*eA*eT*e[5mC]) [ISIS 16504] | 72 | – | – | % mRNA Inhibition [1, 3]: 28% |
| GCGTGAAGACGTCCAGAAGC (chemistry not fully specified) [ISIS 17896] | – | 24 | 76 | – |
| GTGCTTCAGGTGCTTGAGCA (chemistry not fully specified) [ISIS 17895] | – | 25 | 75 | – |
| GAAGTGGGATCAACAGAACA (eG*eA*eA*eG*eT*eG*dG*dG*dA*dT*dC*dA*dA*dC*eA*eG*eA*eA*e[5mC]*eA; antisense) [ISIS 16501] | 77 | – | – | % mRNA Inhibition [1, 3]: 23% |
| TCCAGGCTGAGCAGCTCTAA (chemistry not fully specified) [ISIS 17908] | – | 17 | 83 | – |
| CGACATGTCCGGAGCAGAAT (chemistry not fully specified) [ISIS 17891] | – | 22 | 78 | – |
| GCCAGTGCCTCAGGTGCACT [ISIS 17902] | – | 49 | 51 | – |
| CCTACACATGGCAAGCACAT (chemistry not fully specified) [ISIS 17907] | – | 8 | 92 | % mRNA EXPRESSION ([2]; dose 10 nM): 37%; % mRNA Inhibition ([2]; dose 10 nM): 63%; % mRNA EXPRESSION ([2]; dose 25 nM): 22%; % mRNA Inhibition ([2]; dose 25 nM): 78%; % mRNA EXPRESSION ([2]; dose 50 nM): 18%; % mRNA Inhibition ([2]; dose 50 nM): 72%; % mRNA EXPRESSION ([2]; dose 100 nM): 18%; % mRNA Inhibition ([2]; dose 100 nM): 72% |
